Data taken from patent US8501783B2, “Conformationally restricted urea inhibitors of soluble epoxide hydrolase” (The Regents of the University of California, priority 2006, dated 2013).
Like-named read-outs stand apart in the source and are kept apart here.

Key:
[1] = target: human sEH (Homo sapiens (Human), UniProt P34913); experiment: Inhibition of human soluble epoxide hydrolase (IC50; one of three substrate methods); type: biochemical;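 also: enzyme expressed in baculovirus and affinity-purified, assays run in triplicate, with substrate and read-out differing among the three methods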
[2] = Pharmacokinetic screening in dogs, oral administration, plasma LC-MS/MS; conditions: for AUC: dog, plasma, po, 0.3 mg/kg; for AUCINF_D_pred / LC/MS analysis, plasma level at time 0 / LC/MS analysis, plasma level at time 15 / LC/MS analysis, plasma level at time 30 / LC/MS analysis, plasma level at time 60 / LC/MS analysis, plasma level at time 120 / LC/MS analysis, plasma level at time 180 / LC/MS analysis, plasma level at time 240 / LC/MS analysis, plasma level at time 300 / LC/MS analysis, plasma level at time 360 / LC/MS analysis, plasma level at time 480 / LC/MS analysis, plasma level at time 1440: dogs; for AUCINF_D_pred: oral, dose-normalised; for LC/MS analysis, plasma level at time 0 / LC/MS analysis, plasma level at time 15 / LC/MS analysis, plasma level at time 30 / LC/MS analysis, plasma level at time 60 / LC/MS analysis, plasma level at time 120 / LC/MS analysis, plasma level at time 180 / LC/MS analysis, plasma level at time 240 / LC/MS analysis, plasma level at time 300 / LC/MS analysis, plasma level at time 360 / LC/MS analysis, plasma level at time 480 / LC/MS analysis, plasma level at time 1440: single oral dose (0.3 mg/kg per FIG. 1); for LC/MS analysis, plasma level at time 0: time 0 min; for LC/MS analysis, plasma level at time 15: time 15 min; for LC/MS analysis, plasma level at time 30: time 30 min; for LC/MS analysis, plasma level at time 60: time 60 min; for LC/MS analysis, plasma level at time 120: time 120 min; for LC/MS analysis, plasma level at time 180: time 180 min; for LC/MS analysis, plasma level at time 240: time 240 min; for LC/MS analysis, plasma level at time 300: time 300 min; for LC/MS analysis, plasma level at time 360: time 360 min; for LC/MS analysis, plasma level at time 480: time 480 min; for LC/MS analysis, plasma level at time 1440: time 1440 min
[3] = Solubility in oil of the dosing preparation (compound in Crisco); type: physicochemical; conditions: appearance in oil, in parentheses after compound number
Text: The dogs are fed immediately thereafter.

human sEH, sequence (P34913 whole entry): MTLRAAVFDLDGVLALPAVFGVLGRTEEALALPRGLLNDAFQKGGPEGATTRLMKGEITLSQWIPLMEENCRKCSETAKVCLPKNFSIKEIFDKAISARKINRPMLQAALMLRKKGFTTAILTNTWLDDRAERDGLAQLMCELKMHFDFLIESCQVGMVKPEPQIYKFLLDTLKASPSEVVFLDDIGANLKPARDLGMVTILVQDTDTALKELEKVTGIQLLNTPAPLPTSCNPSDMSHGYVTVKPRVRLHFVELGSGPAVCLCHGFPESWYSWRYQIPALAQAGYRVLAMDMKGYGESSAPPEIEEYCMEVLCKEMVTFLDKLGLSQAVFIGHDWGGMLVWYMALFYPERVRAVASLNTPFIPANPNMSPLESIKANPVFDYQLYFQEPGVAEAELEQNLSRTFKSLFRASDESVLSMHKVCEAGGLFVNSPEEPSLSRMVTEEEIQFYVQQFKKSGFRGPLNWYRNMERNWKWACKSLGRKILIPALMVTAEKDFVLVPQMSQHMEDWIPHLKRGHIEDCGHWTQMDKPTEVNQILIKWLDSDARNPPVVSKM

Row | AUC [2] [µM·h] | solubility in oil [3] | AUCINF_D_pred [2] [kg·nM·min/mg] | LC/MS analysis, plasma level at time 0 [2] | LC/MS analysis, plasma level at time 15 [2] | LC/MS analysis, plasma level at time 30 [2] | LC/MS analysis, plasma level at time 60 [2] | LC/MS analysis, plasma level at time 120 [2] | LC/MS analysis, plasma level at time 180 [2] | LC/MS analysis, plasma level at time 240 [2] | LC/MS analysis, plasma level at time 300 [2] | LC/MS analysis, plasma level at time 360 [2] | LC/MS analysis, plasma level at time 480 [2] | IC50 ([1]; recombinant human sEH) [nM] | LC/MS analysis, plasma level at time 1440 [2] | SMILES | IC50 [1] [nM]
1 | 0.0433 | 1606 (Suspension) | 8553 | 0.00 | 0.00 | 1.61 | 4.82 | 9.37 | 10.98 | 6.83 | 5.62 | 3.21 | 1.47 | – | – | O=C(NC1CCN(C(=O)C(F)(F)F)CC1)NC12CC3CC(CC(C3)C1)C2 [Compound 1606] | –
2 | 0.09 | – | – | – | – | – | – | – | – | – | – | – | – | 0.9 | – | COC(=O)N1CCC(NC(=O)NC23CC4CC(CC(C4)C2)C3)CC1 [Compound 1702, 4-(3-Adamantan-1-yl-ureido)-piperidine-1-carboxylic acid methyl ester] | –
3 | 6.5 | 1555 (Opaque) | 13002825 | 0.00 | 16.07 | 45.76 | 100.35 | 216.91 | 260.79 | 268.90 | 302.64 | – | 320.45 | – | 266.29 | CC(=O)N1CCC(NC(=O)Nc2ccc(OC(F)(F)F)cc2)CC1 [Compound 1555, 1-(1-Acetyl-piperidin-4-yl)-3-(4-trifluoromethoxy-phenyl)-urea] | –
4 | – | 1121 (Not dissolved) | – | 0.00 | 4.86 | 3.81 | 1.98 | 0.42 | 0.16 | 0.06 | 0.05 | 0.03 | 0.03 | 3.2 | 0.04 | O=C(NCC1CCN(C(=O)c2ccccc2)CC1)NC12CC3CC(CC(C3)C1)C2 [Compound 1121, N-((1-benzoylpiperidin-4-yl)methyl)-N′-(adamant-1-yl)urea] | –
5 | – | 1206 (Opaque) | – | 0.00 | 0.00 | 0.00 | 0.00 | 0.00 | 0.00 | 0.00 | 0.00 | 0.00 | 0.00 | 2.7 | 0.00 | COC(=O)CCCC(=O)N1CCC(NC(=O)NC23CC4CC(CC(C4)C2)C3)CC1 [Compound 1206, 5-[4-(3-Adamantan-1-yl-ureido)-piperidin-1-yl]-5-oxo-pentanoic acid methyl ester] | –

Row | SMILES | AUC [2] [µM·h] | solubility in oil [3] | AUCINF_D_pred [2] [kg·nM·min/mg] | LC/MS analysis, plasma level at time 0 [2] | LC/MS analysis, plasma level at time 15 [2] | LC/MS analysis, plasma level at time 30 [2] | LC/MS analysis, plasma level at time 60 [2] | LC/MS analysis, plasma level at time 120 [2] | LC/MS analysis, plasma level at time 180 [2] | LC/MS analysis, plasma level at time 240 [2] | LC/MS analysis, plasma level at time 300 [2] | LC/MS analysis, plasma level at time 360 [2] | LC/MS analysis, plasma level at time 480 [2] | IC50 ([1]; recombinant human sEH) [nM] | LC/MS analysis, plasma level at time 1440 [2] | IC50 [1] [nM]
6 | CC(=O)N1CCC(NC(=O)NC2CCCCCC2)CC1 [Compound 1645, 1-(1-Acetyl-piperidin-4-yl)-3-cycloheptyl-urea] | 3.68 | – | – | – | – | – | – | – | – | – | – | – | – | – | – | 27.6
